Measurements reported in patent publication US7846903B2, “Type II cubic liquid crystal composition” (National Institute of Advanced Industrial Science and …, priority 2004, dated 2010).
Blank lines part the entries; values can stand above or below the compound they belong to.

Experiments:
[1] = literature; cited from earlier work
[2] = Krafft temperature (TK) by DSC of amphiphilic compound/water system; format: physicochemical; details: for TK (Krafft temperature): compound/water system
Experimental: Liquid crystals such as cubic liquid crystals formed by amphiphilic lipids are formed only at the Krafft temperature (TK), as determined depending on types and concentrations of amphiphilic lipids, or higher. Furthermore, liquid crystals generally undergo a phase transition upon changes in the concentration of the amphiphilic lipid or temperature. Accordingly, the maximal temperature (Tmax) at which a given liquid crystal structure can be stably present is also determined depending on lipid type and concentration of amphiphilic lipid. Thus, a liquid crystal structure formed by a given type of amphiphilic lipid is stably formed in the temperature range between TK and Tmax. The correlation between TK-Tmax and the concentration of the amphiphilic lipid is generally indicated as a “concentration-temperature dependent phase diagram” of the amphiphilic lipid/water system. The Krafft temperature of the amphiphilic lipid can be determined by a method known in the art, such as a method involving the preparation of such a phase diagram (e.g., Laughlin, R. G., “The Aqueous Phase Behavior of Surfactants,” 1994, Academic Press London, pp. 106-117). The Krafft temperature of a mixture of two or more amphiphilic lipids can be determined by the same method.
In the cubic liquid crystal composition of the present invention, stable bicontinuous type II cubic liquid crystals are formed at low temperatures, such as lower than 6° C. In the liquid crystal composition of the present invention, stable bicontinuous type II cubic liquid crystals are typically formed between −10° C. (or at the freezing temperature of the aqueous medium used or higher) and 80° C., and preferably between 0° C. and 50° C. The Krafft temperature of the amphiphilic lipid can be easily determined by, for example, DSC assay of an aqueous solution containing 1% to 85% by mass of amphiphilic lipid or by observing the melting behavior of the amphiphilic lipid under a (polarizing) microscope. More precisely, such temperature may be determined in accordance with a conventional technique involving the preparation of a phase diagram (e.g., Laughlin, R. G., “The Aqueous Phase Behavior of Surfactants,” 1994, Academic Press, London, pp. 106-117).
The Krafft temperatures of these amphiphilic compounds and mixtures thereof determined by the analyses described below are shown in Table 2-1 and Table 2-2.
Subsequently, the sample of mono-O-(phytanyl)pentaerythritol/water system was subjected to differential scanning calorimetry (DSC) in a temperature range between −45° C. and 70° C. DSC analysis employed the Seiko SSC/560U differential scanning calorimeter (Seiko Instruments Inc.). The sample of mono-O-(phytanyl)pentaerythritol/water system (72.4% by mass) prepared by the above method was sealed in a DSC cell, and the sample was incubated while cooling at −45° C. for 3 hours to thoroughly form a hydrated solid of mono-O-(phytanyl)pentaerythritol (hereafter abbreviated as “hydrated solid”). Subsequently, this hydrated solid was heated at a rate of temperature increase of 0.5° C./minute and a melting behavior of the hydrated solid was inspected by DSC analysis. As a result, an endothermic peak resulting from melting of the hydrated solid that begins at around −40° C. and ends at around −27° C. and an endothermic peak resulting from ice melting observed between −10° C. and 1° C. were observed, as shown in FIG. 4. In FIG. 4, the left peak is the endothermic peak resulting from melting of the hydrated solid and the right peak is the endothermic peak resulting from ice melting. Although analysis was conducted up to 70° C., other thermal transition was not observed. Substantially the same results were obtained at other concentrations. Thus, the TK of mono-O-(phytanyl)pentaerythritol was concluded to be 0° C. or lower.

[3] = Formation and structure of cubic liquid crystals by polarizing microscopy (penetration method) and SAXS; format: physicochemical; details: for lattice constant: Pn3m, 52.3% by mass
Description: Whether or not the amphiphilic lipid/water system forms cubic liquid crystals and whether or not such composition is type I or II can be easily determined by the penetration method. A small amount (several mg) of amphiphilic lipids is placed on a glass slide for a microscope, and slight pressure is applied with a glass cover to form a thin layer of amphiphilic lipids (diameter: about 1 to 5 mm) with a thickness of about 10 μm in the gap between the glass slide and the glass cover. Upon addition of water or an aqueous medium from a side of the gap between the glass slide and the glass cover by capillary action, water gradually invades the amphiphilic lipid thin layer from the exterior edge, and a water content gradient is formed from the amphiphilic lipid thin layer/water interface toward the inside of the amphiphilic lipid thin layer. Polarizing microscopic observation thereof enables the determination of a phase type formed depending on the concentration of the amphiphilic lipid/water system. […] In FIG. 2, 4 regions are observed. The rightmost region in the photograph indicates a water region, and the other regions indicate hydrous amphiphilic lipid regions. In the photograph, the rightmost regions indicates the highest water content and the leftmost region indicates a region of amphiphilic lipids that has not yet been penetrated by water. […] Since cubic liquid crystals are stably formed at the interface of excess water and the amphiphilic lipid portion, such crystals are found to be of type II.
To this end, whether or not the liquid crystal structure has cubic lattices may be investigated by the small-angle x-ray scattering (SAXS) assay. In this process, a sample of an amphiphilic lipid/water system at a given concentration may be introduced into a quartz X-ray capillary tube, the capillary may be sealed with an oxygen burner, and the resultant may be subjected to the SAXS assay.
The cubic liquid crystal composition of the present invention is not particularly limited. […] Thus, spaces and lattice constants can be easily determined. The peak values of small angle X-ray scattering or the cubic lattice size of cubic liquid crystals in the presence of an excess aqueous solvent are at constant levels regardless of the lipid concentration. The coexistence state of cubic liquid crystals and an excess aqueous medium can be confirmed by the SAXS assay. Thus, whether or not the cubic liquid crystals are of type II can be easily determined.
In equations, nL and nW are actually measurable, and ac can be measured by the SAXS experiment. Thus, the dhc value can be determined based on equations (ii) and (iii). […] Based on such comparison, whether or not the cubic liquid crystal structure is of a bicontinuous type can be determined.
Mono-O-(3,7,11,15-tetramethylhexadecyl)pentaerythritol (hereafter referred to as “mono-O-(phytanyl)pentaerythritol,” formula (5) above) and pure water were introduced into a mixing device, and incubation was carried out while performing 100 or more times of mixing operations at room temperature (23° C.) over the period of 48 hours. Thus, a homogeneously mixed sample of mono-O-(phytanyl)pentaerythritol/water system was obtained. This sample of mono-O-(phytanyl)pentaerythritol/water system appeared to be a transparent gel composition.
Subsequently, the thus obtained sample of mono-O-(phytanyl)pentaerythritol/water system (the concentration of the amphiphilic compound: 74.6% by mass) was observed by polarizing microscopy. In entire region of the lipid portions, optically isotropic textures peculiar to the cubic liquid crystals were observed (FIG. 3). In FIG. 3, the right region indicates water and the left region indicates the sample of mono-O-(phytanyl)pentaerythritol/water system. […] Such observation indicates the formation of cubic liquid crystals.
Subsequently, the sample of mono-O-(phytanyl)pentaerythritol/water system was confirmed to be a cubic liquid crystal by small-angle x-ray scattering (SAXS). […]

[4] = lipid alone, total amphiphilic compound content 60% by mass (excess water)

Compound: CC(C)CCCC(C)CCCC(C)CCCC(C)(O)C(O)CO (stereo not shown) [phytantriol, 3,7,11,15-tetramethylhexadecyl-1,2,3-triol]
Temperature at which cubic liquid crystals are transformed into inverted hexagonal liquid crystals [1]: ≥ 40 °C

Compound: monopentadecenoin
Krafft temperature [1]: 30 °C

Compound: CCCCCCCC/C=C\CCCCCCCC(=O)OCC(O)CO (stereo not shown) [monoolein]
Krafft temperature [1]: 15 °C

Compound: CCCCCCCCCCCCCCCCCC(=O)OCC(O)CO (stereo not shown) [monooctadecanoin]
Krafft temperature [1]: 80 °C

TK (Krafft temperature) ([2]; listed as β-XP): about 10 °C | maximal temperature at which the cubic liquid crystal structure is formed [3]: 75 °C | diameter of the water channel of the cubic liquid crystals [3, 4]: 3.8 nm | lattice constant of the cubic liquid crystals [3, 4]: 9.2 nm
Compound: CC(C)CCCC(C)CCCC(C)CCCC(C)CCOC1OC[C@@H](O)C(O)C1O (stereo partly shown) [formula (13), reference compound]
Krafft temperature [1]: 10 °C

Compound: CCCCCC/C=C\CCCCCCCCCC(=O)OC[C@H](O)CO [monovaccenin]
Krafft temperature [1]: 15 °C

Compound: CCCC/C=C\CCCCCCCC(=O)OCC(O)CO (stereo not shown) [monomyristolein]
Krafft temperature [1]: 35 °C

Krafft temperature (° C.) ([2]; amphiphilic compound alone): 0 °C or lower | TK (Krafft temperature) [2]: ≤ 0 °C | lattice constant ([3]; 1° C.): 11.4 nm | lattice constant ([3]; 25° C.): 11.3 nm | lattice constant ([3]; 45° C.): 10.1 nm
Compound: CC(C)CCCC(C)CCCC(C)CCCC(C)CC(=O)OCC(O)C(O)CO (stereo not shown) [formula (4), 1-O-(3,7,11,15-tetramethylhexadecanoyl)erythritol]
